Publication PMC10794144, “A novel antibiotic class targeting the lipopolysaccharide transporter” (Nature, 2024)

System: A. baumannii
Assay: microbe, parasite or virus in culture
Method in brief: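 CLSI broth microdilution (M07/M100); inoculum from 0.5 McFarland suspension diluted in CAMHB; MIC = lowest concentration with no visible growth or where OD600 stops falling.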

CN1C(=O)[C@H](CCCCN)NC(=O)[C@H](CCCN)NCc2cccnc2Sc2c(Cl)ccc(Cl)c2CNC(=O)[C@@H]1Cc1c[nH]c2ccccc12 [RO7075573]
0.5 µg/mL: MIC 80% (ROB08706, Study LGC286210) | MIC 80% (ROB08706, Study LGC293598) | MIC 80% (ROB08706, Study LGC294355) | MIC 80% (ROB08706, Study LGC296813) | MIC 80% (ROB08706, Study LGC299544) | MIC 80% (ROB08706, Study LGC301026) | MIC 80% (ROB08706, Study LGC308175) | MIC 80% (ROB08706, Study ROC010) | MIC 100% (ROB08706, Study ROC010) | MIC 80% (ROB08706, Study ROC012)
64 µg/mL: MIC 100% (ROB08705, Study ROC010) | MIC 100% (ROB08706, Study LGC282160) | MIC 100% (ROB08706, Study LGC285582) | MIC 100% (ROB08706, Study LGC286210) | MIC 100% (ROB08706, Study LGC295147) | MIC 100% (ROB08706, Study LGC296813) | MIC 100% (ROB08706, Study LGC299544) | MIC 100% (ROB08706, Study LGC301026) | MIC 100% (ROB08706, Study LGC308175) | MIC 100% (ROB08707, Study LGC282160) | MIC 100% (ROB08707, Study LGC285582) | MIC 100% (ROB08707, Study LGC286210) | MIC 100% (ROB08707, Study LGC295147) | MIC 100% (ROB08707, Study LGC296813) | MIC 100% (ROB08707, Study LGC299544) | MIC 100% (ROB08707, Study LGC301026) | MIC 100% (ROB08707, Study LGC308175) | MIC 100% (ROB08708, Study LGC282160)
0.25 µg/mL: MIC 80% (ROB08706, Study LGC281440) | MIC 80% (ROB08706, Study LGC282160) | MIC 80% (ROB08706, Study LGC285582) | MIC 80% (ROB08706, Study LGC295147) | MIC 80% (ROB08707, Study LGC301026)
>64 µg/mL: MIC 100% (ROB08706, Study LGC284879) | MIC 100% (ROB08706, Study LGC293598) | MIC 100% (ROB08706, Study LGC294355) | MIC 100% (ROB08707, Study LGC284879) | MIC 100% (ROB08707, Study LGC293598) | MIC 100% (ROB08707, Study LGC294355) | MIC 100% (ROB08708, Study LGC284879)
1 µg/mL: MIC 100% (ROB08705, Study LGC295147) | MIC 80% (ROB08706, Study LGC284879)
32 µg/mL: MIC 100% (ROB08705, Study LGC294355) | MIC 100% (ROB08706, Study ROC012) | MIC 100% (ROB08707, Study ROC012)
16 µg/mL: MIC 100% (ROB08706, Study LGC281440) | MIC 100% (ROB08707, Study LGC281440) | MIC 100% (ROB08708, Study LGC281440)
0.12 µg/mL: MIC 80% (ROB08705, Study LGC295147) | MIC 80% (ROB08705, Study LGC299544) | MIC 100% (ROB08705, Study LGC299544) | MIC 80% (ROB08705, Study ROC010) | MIC 100% (ROB08705, Study ROC012) | MIC 80% (ROB08707, Study LGC282160) | MIC 80% (ROB08707, Study LGC284879) | MIC 80% (ROB08707, Study LGC285582) | MIC 80% (ROB08707, Study LGC286210) | MIC 80% (ROB08707, Study LGC294355) | MIC 80% (ROB08707, Study LGC295147) | MIC 80% (ROB08707, Study LGC296813) | MIC 80% (ROB08707, Study LGC299544) | MIC 80% (ROB08707, Study ROC010) | MIC 100% (ROB08707, Study ROC010) | MIC 80% (ROB08707, Study ROC012) | MIC 80% (ROB08708, Study LGC282160) | MIC 80% (ROB08708, Study LGC284879)
≤0.06 µg/mL: MIC 80% (ROB08705, Study LGC285582) | MIC 100% (ROB08705, Study LGC285582) | MIC 80% (ROB08705, Study LGC286210) | MIC 100% (ROB08705, Study LGC286210) | MIC 80% (ROB08705, Study LGC293598) | MIC 100% (ROB08705, Study LGC293598) | MIC 80% (ROB08705, Study LGC294355) | MIC 80% (ROB08705, Study LGC296813) | MIC 100% (ROB08705, Study LGC296813) | MIC 80% (ROB08705, Study LGC301026) | MIC 100% (ROB08705, Study LGC301026) | MIC 80% (ROB08705, Study LGC308175) | MIC 100% (ROB08705, Study LGC308175) | MIC 80% (ROB08705, Study ROC012) | MIC 80% (ROB08707, Study LGC281440) | MIC 80% (ROB08707, Study LGC293598) | MIC 80% (ROB08707, Study LGC308175) | MIC 80% (ROB08708, Study LGC281440)
